One assay deals with HBV rcDNA. Nature of the assay: HepDE19 assay with bDNA quantitation of HBV rcDNA. The format is cell-based, hepatitis B virus. Conditions: HepDE19 assay, inhibition of formation of rcDNA; read-out: DE-19bDNA EC50. The method, then: HepDE19 Assay with bDNA Quantitation of HBV rcDNA:
HepDE19 cell culture system is a HepG2 (human hepatocarcinoma) derived cell line that supports HBV DNA replication and cccDNA formation in a tetracycline (Tet)-regulated manner and produces HBV rcDNA and a detectable reporter molecule dependent on the production and maintenance of cccDNA (Guo, et al., 2007, J. Virol. 81:12472-12484).
HepDE19 (50,000 cells/well) were plated in 96-well collagen-coated tissue-culture treated microtiter plates in DMEM/F12 medium supplemented with 10% fetal bovine serum, 1% penicillin-streptomycin and 1 μg/mL tetracycline and incubated in a humidified incubator at 37° C. and 5% CO2 overnight. Next day, the cells were switched to fresh medium without tetracycline and incubated for 4 hours at 37° C. and 5% CO2. The cells were treated with fresh Tet-free medium with compounds at concentrations starting at 25 μM and a serial, […], 8-point, titration series in duplicate. The final DMSO concentration in the assay was 0.5%. The plates were incubated for 7 days in a humidified incubator at 37° C. and 5% CO2. Following a 7 day-incubation, the level of rcDNA present in the inhibitor-treated wells was measured using a Quantigene 2.0 bDNA assay kit (Affymetrix, Santa Clara, Calif.) with HBV specific custom probe set and manufacturers instructions. Concurrently, the effect of compounds on cell viability was assessed using replicate plates, plated at a density of 5,000 cells/well and incubated for 4 days, to determine the ATP content as a measure of cell viability using the cell-titer glo reagent (CTG; Promega Corporation, Madison, Wis.) as per manufacturer's instructions. The plates were read using a Victor luminescence plate reader (PerkinElmer Model 1420 Multilabel counter) and the relative luminescence units (RLU) data generated from each well was calculated as % inhibition of the untreated control wells and analyzed using XL-Fit module in Microsoft Excel to determine EC50 and EC90 (bDNA) and CC50 (CTG) values using a 4-parameter curve fitting algorithm.
For orientation: EC50 means the concentration that produces a half-maximal response. As for `CC(NC(=O)Nc1ccc(F)c(Cl)c1)c1c[nH]c(=O)c2ccccc12` (single isomer, unassigned) [Compound 11, 1-(3-Chloro-4-fluorophenyl)-3-(1-(1-oxo-1,2-dihydroisoquinolin-4-yl)ethyl)urea], the concentration for a half-maximal effect (EC50) was found to be 4.7 µM.

As for `CCN(C(=O)Nc1ccc(F)c(Cl)c1)C(C)c1cnc(OC)c2ccccc12` (single isomer, unassigned) [Compound 22, 3-(3-Chloro-4-fluorophenyl)-1-ethyl-1-(1-(1-methoxyisoquinolin-4-yl)ethyl)urea], the EC50 was 9.6 µM. On the same count and under the same terms, then `CCN(C(=O)Nc1ccc(F)c(Cl)c1)C(C)c1cnc(OC)c2ccccc12` (single isomer, unassigned) [Compound 23, 3-(3-Chloro-4-fluorophenyl)-1-ethyl-1-(1-(1-methoxyisoquinolin-4-yl)ethyl)urea], with 0.27 µM; and `CCN(C(=O)Nc1ccc(F)c(Cl)c1)C(C)c1c[nH]c(=O)c2ccccc12` (single isomer, unassigned) [Compound 24, 3-(3-Chloro-4-fluorophenyl)-1-ethyl-1-(1-(1-oxo-1,2-dihydroisoquinolin-4-yl)ethyl)urea], with 3.2 µM; and `CCN(C(=O)Nc1ccc(F)c(Cl)c1)C(C)c1c[nH]c(=O)c2ccccc12` (single isomer, unassigned) [Compound 25, 3-(3-Chloro-4-fluorophenyl)-1-ethyl-1-(1-(1-oxo-1,2-dihydroisoquinolin-4-yl)ethyl)urea], with 0.02 µM. Take `CCC(c1cnc(OC)c2ccccc12)N(CC)C(=O)Nc1ccc(F)c(Cl)c1` (single isomer, unassigned) [Compound 36, 3-(3-Chloro-4-fluorophenyl)-1-ethyl-1-(1-(1-methoxyisoquinolin-4-yl)propyl)urea]: the EC50 stood at 2.1 µM. On to `CCC(c1cnc(OC)c2ccccc12)N(CC)C(=O)Nc1ccc(F)c(Cl)c1` (single isomer, unassigned) [Compound 38, 3-(3-Chloro-4-fluorophenyl)-1-ethyl-1-(1-(1-methoxyisoquinolin-4-yl)propyl)urea], for which the EC50 came out at 18 µM.

As for `CCN(C(=O)Nc1ccc(F)c(Cl)c1)C(c1cnc(OC)c2ccccc12)C1CC1` (single isomer, unassigned) [Compound 40, 3-(3-Chloro-4-fluorophenyl)-1-(cyclopropyl(1-methoxyisoquinolin-4-yl)methyl)-1-ethylurea], the EC50 turned out to be 20 µM.

With `CCN(C(=O)Nc1ccc(F)c(Cl)c1)C(c1cnc(OC)c2ccccc12)C(C)C` (single isomer, unassigned) [Compound 45, 3-(3-Chloro-4-fluorophenyl)-1-ethyl-1-(1-(1-methoxyisoquinolin-4-yl)-2-methylpropyl)urea], the EC50 was determined as 19 µM.

Staying with this assay, now noted: Hepatitis B virus, HepDE19, HepDE19 assay, inhibition of formation of rcDNA; read-out: DE-19bDNA EC50.
`CC(NC(=O)Nc1ccc(F)c(Cl)c1)c1c[nH]c(=O)c2ccccc12` (single isomer, unassigned) [Compound 10, 1-(3-Chloro-4-fluorophenyl)-3-(1-(1-oxo-1,2-dihydroisoquinolin-4-yl)ethyl)urea]: the EC50 is 3.4 µM. Consider `COc1ncc(C(C)N(C)C(=O)Nc2ccc(F)c(Cl)c2)c2ccccc12` (single isomer, unassigned) [Compound 30, 3-(3-chloro-4-fluorophenyl)-1-(1-(1-methoxyisoquinolin-4-yl)ethyl)-1-methylurea], for which the EC50 was 0.56 µM. With `CCN(C(=O)Nc1ccc(F)c(Cl)c1)C(c1cnc(OC)c2ccccc12)C(C)C` (single isomer, unassigned) [Compound 44, 3-(3-Chloro-4-fluorophenyl)-1-ethyl-1-(1-(1-methoxyisoquinolin-4-yl)-2-methylpropyl)urea], the EC50 came out at 25 µM.

The same assay, now with this note: Hepatitis B virus, HepDE19, HepDE19 assay, inhibition of formation of relaxed circular DNA (rcDNA), bDNA quantitation; read-out: DE-19bDNA EC50.
With `CC(C)CN(C(=O)Nc1ccc(F)c(Cl)c1)C(C)c1cnc(-n2cncn2)c2ccccc12` (racemic) [Compound 300, 1-(1-(1-(1H-1,2,4-triazol-1-yl)isoquinolin-4-yl)ethyl)-3-(3-chloro-4-fluorophenyl)-1-isobutylurea], the EC50 was determined as 0.02 µM. For the compound `CC(C)CN(C(=O)Nc1ccc(F)cc1)C(C)c1cnc(-n2cncn2)c2ccccc12` (racemic) [Compound 301, 1-(1-(1-(1H-1,2,4-Triazol-1-yl)isoquinolin-4-yl)ethyl)-3-(4-fluorophenyl)-1-isobutylurea], the EC50 turned out to be 0.051 µM.

Take `CC(c1cnc(-n2ccnn2)c2ccccc12)N(C)C(=O)Nc1ccc(F)c(Cl)c1` (racemic) [Compound 354, 1-(1-(1-(1H-1,2,3-triazol-1-yl)isoquinolin-4-yl)ethyl)-3-(3-chloro-4-fluorophenyl)-1-methylurea]: the EC50 was 0.13 µM. Same read-out and setting: with `CC(C)CN(C(=O)Nc1ccc(F)c(Cl)c1)C(C)c1cnc(-n2ccnn2)c2ccccc12` (racemic) [Compound 355, 1-(1-(1-(1H-1,2,3-Triazol-1-yl)isoquinolin-4-yl)ethyl)-3-(3-chloro-4-fluorophenyl)-1-isobutylurea] the figure was 0.018 µM; with `CC(c1c[nH]c(=O)c2c(F)c(F)ccc12)N(CCS(N)(=O)=O)C(=O)Nc1ccc(F)c(Cl)c1` (racemic) [Compound 393, 2-(3-(3-chloro-4-fluorophenyl)-1-(1-(7,8-difluoro-1-oxo-1,2-dihydroisoquinolin-4-yl)ethyl)ureido) ethane-1-sulfonamide], 0.037 µM.

Still in this assay, the particulars now being: Hepatitis B virus, HepDE19, read-out: DE-19bDNA EC50 (μM), HepDE19 assay, inhibition of formation of rcDNA.
As to `CCN(C(=O)Nc1ccc(F)c(Cl)c1)C(c1c[nH]c(=O)c2ccccc12)C(C)C` (single isomer, unassigned) [Compound 54, 3-(3-Chloro-4-fluorophenyl)-1-ethyl-1-(2-methyl-1-(1-oxo-1,2-dihydroisoquinolin-4-yl)propyl)urea], the EC50 came out at 20 µM.

The assay is the same for the next values; noted with them: read-out: DE-19bDNA EC50; HepDE19 assay, inhibition of formation of rcDNA.
With `CCC(c1c[nH]c(=O)c2ccccc12)N(CC)C(=O)Nc1ccc(F)c(Cl)c1` (single isomer, unassigned) [Compound 37, 3-(3-chloro-4-fluorophenyl)-1-ethyl-1-(1-(1-oxo-1,2-dihydroisoquinolin-4-yl)propyl)urea], the EC50 was determined as 0.26 µM. The same measure, in the same setting: then `CCC(c1c[nH]c(=O)c2ccccc12)N(CC)C(=O)Nc1ccc(F)c(Cl)c1` (single isomer, unassigned) [Compound 39, 3-(3-Chloro-4-fluorophenyl)-1-ethyl-1-(1-(1-oxo-1,2-dihydroisoquinolin-4-yl)propyl)urea], with 14 µM. Consider `CCN(C(=O)Nc1ccc(F)c(Cl)c1)C(c1c[nH]c(=O)c2ccccc12)C1CC1` (single isomer, unassigned) [Compound 46, 3-(3-Chloro-4-fluorophenyl)-1-(cyclopropyl(1-oxo-1,2-dihydroisoquinolin-4-yl)methyl)-1-ethylurea], for which the EC50 stood at 23 µM. On to `CCN(C(=O)Nc1ccc(F)c(Cl)c1)C(c1c[nH]c(=O)c2ccccc12)C1CC1` (single isomer, unassigned) [Compound 49, 3-(3-Chloro-4-fluorophenyl)-1-(cyclopropyl(1-oxo-1,2-dihydroisoquinolin-4-yl)methyl)-1-ethylurea], for which the concentration for a half-maximal effect (EC50) is 0.5 µM. As to `CCN(C(=O)Nc1ccc(F)c(Cl)c1)C(c1c[nH]c(=O)c2ccccc12)C(C)C` (single isomer, unassigned) [Compound 55, 3-(3-Chloro-4-fluorophenyl)-1-ethyl-1-(2-methyl-1-(1-oxo-1,2-dihydroisoquinolin-4-yl)propyl)urea], the EC50 turned out to be 11 µM.

Source of the values: patent US20230045421A1 (priority 2018, published 2023).
